Experimental data: ChEMBL document CHEMBL1909046, “DrugMatrix in vitro pharmacology data”

What was measured:
[1] = molecular target: T1, Alpha-1D adrenergic receptor (Homo sapiens, UniProt P25100); assay type: cell membranes, HEK293, Membrane; conditions: for Ki: read-out: Ki; for all read-outs here: in other assays of this panel Not Active means under 50% inhibition at 10 µM
T1 sequence (P25100 whole entry): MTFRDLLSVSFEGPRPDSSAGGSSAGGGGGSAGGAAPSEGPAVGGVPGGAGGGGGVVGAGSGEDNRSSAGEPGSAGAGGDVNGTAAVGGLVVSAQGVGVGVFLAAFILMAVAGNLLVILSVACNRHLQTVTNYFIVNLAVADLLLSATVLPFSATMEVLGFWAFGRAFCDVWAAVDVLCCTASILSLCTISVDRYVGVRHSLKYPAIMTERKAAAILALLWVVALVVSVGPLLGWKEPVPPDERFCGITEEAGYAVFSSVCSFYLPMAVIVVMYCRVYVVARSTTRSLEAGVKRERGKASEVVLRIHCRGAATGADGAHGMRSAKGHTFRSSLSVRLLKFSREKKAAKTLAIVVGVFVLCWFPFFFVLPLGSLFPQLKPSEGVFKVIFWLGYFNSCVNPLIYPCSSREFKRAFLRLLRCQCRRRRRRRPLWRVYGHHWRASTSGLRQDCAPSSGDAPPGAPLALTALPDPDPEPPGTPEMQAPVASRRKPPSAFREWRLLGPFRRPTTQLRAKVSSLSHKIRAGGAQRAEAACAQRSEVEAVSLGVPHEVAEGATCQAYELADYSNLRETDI

[2] = DRUGMATRIX: GABAA, Chloride Channel, TBOB radioligand binding (ligand: [3H] TBOB); assay type: cell membranes, Rattus norvegicus, Wistar, Cerebral cortex, Membrane; conditions: Not Active = under 50% inhibition at 10 µM
[3] = molecular target: T2, Endothelin-1 receptor (Homo sapiens, UniProt P25101); assay type: cell membranes, Membrane; conditions: cho-k1; note: in other assays of this panel Not Active means under 50% inhibition at 10 µM
T2 sequence (P25101 whole entry): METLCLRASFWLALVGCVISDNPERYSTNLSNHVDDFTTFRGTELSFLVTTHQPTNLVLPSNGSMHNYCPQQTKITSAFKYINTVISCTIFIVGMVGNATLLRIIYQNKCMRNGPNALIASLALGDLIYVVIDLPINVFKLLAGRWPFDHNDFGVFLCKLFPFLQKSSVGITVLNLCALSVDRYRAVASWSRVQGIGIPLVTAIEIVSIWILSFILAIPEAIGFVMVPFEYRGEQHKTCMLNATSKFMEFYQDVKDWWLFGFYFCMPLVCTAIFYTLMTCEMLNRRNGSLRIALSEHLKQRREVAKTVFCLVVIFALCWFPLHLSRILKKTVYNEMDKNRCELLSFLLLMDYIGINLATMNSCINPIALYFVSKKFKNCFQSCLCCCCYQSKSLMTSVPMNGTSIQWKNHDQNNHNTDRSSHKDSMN

[4] = molecular target: cGMP-specific 3',5'-cyclic phosphodiesterase (Homo sapiens, UniProt O76074); test: DRUGMATRIX: Phosphodiesterase PDE5 enzyme inhibition (substrate: [3H]cGMP + cGMP); assay type: tissue-based, Platelet; conditions: platelet; Not Active = under 50% inhibition at 10 µM
[5] = molecular target: Adenosine receptor A2a (Homo sapiens, UniProt P29274); test: DRUGMATRIX: Adenosine A2A radioligand binding (ligand: […]); assay type: cell membranes, HEK293, Membrane; conditions: hek293; Not Active = under 50% inhibition at 10 µM
[6] = molecular target: T3, Muscarinic acetylcholine receptor M5 (Homo sapiens, UniProt P08912); assay type: cell membranes, CHO-K1, Membrane; note: in other assays of this panel Not Active means under 50% inhibition at 10 µM
T3 sequence (P08912 whole entry): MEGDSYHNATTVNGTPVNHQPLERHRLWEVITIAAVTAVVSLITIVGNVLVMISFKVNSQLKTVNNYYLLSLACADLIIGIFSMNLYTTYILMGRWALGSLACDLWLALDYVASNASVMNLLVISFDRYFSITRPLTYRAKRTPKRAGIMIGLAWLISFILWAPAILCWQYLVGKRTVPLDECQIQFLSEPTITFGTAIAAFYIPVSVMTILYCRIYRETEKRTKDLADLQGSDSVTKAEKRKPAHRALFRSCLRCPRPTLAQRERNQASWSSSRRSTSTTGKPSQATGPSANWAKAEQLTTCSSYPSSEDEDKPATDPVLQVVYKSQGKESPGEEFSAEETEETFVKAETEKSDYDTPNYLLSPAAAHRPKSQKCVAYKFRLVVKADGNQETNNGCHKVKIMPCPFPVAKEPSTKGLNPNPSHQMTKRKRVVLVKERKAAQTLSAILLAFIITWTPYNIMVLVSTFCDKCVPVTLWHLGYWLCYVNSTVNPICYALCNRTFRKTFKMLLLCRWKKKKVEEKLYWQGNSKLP

[7] = molecular target: Cannabinoid receptor 1 (Homo sapiens, UniProt P21554); assay type: cell membranes, Chem-1, Membrane; conditions: chem-1; note: in other assays of this panel Not Active means under 50% inhibition at 10 µM
Sequence of Cannabinoid receptor 1 (P21554 whole entry): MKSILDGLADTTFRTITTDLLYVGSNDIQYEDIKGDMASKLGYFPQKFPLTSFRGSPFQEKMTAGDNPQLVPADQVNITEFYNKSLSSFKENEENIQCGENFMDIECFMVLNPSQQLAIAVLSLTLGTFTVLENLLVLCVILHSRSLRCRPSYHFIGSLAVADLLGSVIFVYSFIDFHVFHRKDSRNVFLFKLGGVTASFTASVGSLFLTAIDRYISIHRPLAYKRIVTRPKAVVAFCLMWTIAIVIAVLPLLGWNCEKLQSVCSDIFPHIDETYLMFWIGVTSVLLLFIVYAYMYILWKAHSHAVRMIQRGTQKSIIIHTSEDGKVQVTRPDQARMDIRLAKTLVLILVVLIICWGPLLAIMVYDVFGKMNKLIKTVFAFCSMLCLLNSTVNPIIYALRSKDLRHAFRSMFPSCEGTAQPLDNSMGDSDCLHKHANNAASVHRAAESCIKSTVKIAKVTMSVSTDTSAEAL

Sequence of Adenosine receptor A2a (P29274 whole entry): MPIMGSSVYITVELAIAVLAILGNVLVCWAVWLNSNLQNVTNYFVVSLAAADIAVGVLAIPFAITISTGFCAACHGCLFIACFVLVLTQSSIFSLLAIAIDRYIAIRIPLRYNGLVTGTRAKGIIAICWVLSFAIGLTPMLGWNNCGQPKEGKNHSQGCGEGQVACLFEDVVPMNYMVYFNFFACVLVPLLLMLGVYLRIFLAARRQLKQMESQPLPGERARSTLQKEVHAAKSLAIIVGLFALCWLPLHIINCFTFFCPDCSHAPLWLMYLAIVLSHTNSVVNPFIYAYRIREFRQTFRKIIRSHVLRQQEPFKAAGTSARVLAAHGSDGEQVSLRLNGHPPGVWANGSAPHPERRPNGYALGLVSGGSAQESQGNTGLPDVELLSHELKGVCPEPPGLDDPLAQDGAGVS

Row | Structure (SMILES) | IC50 ([1]; hek293) | IC50 [2] | Ki [2] | IC50 [3] | IC50 [4] | IC50 [5] | IC50 ([6]; cho-k1) | IC50 [7] | IC50 ([1]; read-out: IC50) | Ki [1] | IC50 ([6]; read-out: IC50) | Ki ([6]; read-out: Ki)
1 | C#C[C@]1(O)CC[C@H]2[C@@H]3[C@H](C)CC4=C(CCC(=O)C4)[C@H]3CC[C@@]21C [TIBOLONE] | Not Active | Not Active | Not Active | Not Active | Not Active | Not Active | Not Active | Not Active |  |  |  | 
2 | CN1C(=O)OC(C)(C)C1=O [TRIMETHADIONE] | Not Active | Not Active | Not Active | Not Active | Not Active | Not Active | Not Active | Not Active |  |  |  | 
3 | OC[C@@H](O)[C@@H](O)[C@H](O)[C@H](O)CO [MANNITOL] | Not Active | Not Active | Not Active | Not Active | Not Active | Not Active | Not Active | Not Active |  |  |  | 
4 | CCN(CC)C(=S)SSC(=S)N(CC)CC | Not Active | Not Active | Not Active | Not Active | Not Active | Not Active | Not Active | Not Active |  |  |  | 
5 | O=C(O)c1cc(/N=N/c2ccc(S(=O)(=O)Nc3ccccn3)cc2)ccc1O [SULFASALAZINE] | Not Active | Not Active | Not Active | Not Active | Not Active | Not Active | Not Active | Not Active |  |  |  | 
6 | O=C(c1ccccc1)c1ccc2n1CCC2C(=O)O (centres undefined) [KETOROLAC] | Not Active | Not Active | Not Active | Not Active | Not Active | Not Active | Not Active | Not Active |  |  |  | 
7 | CC[C@H](C)[C@@H](CO[C@@H](Cc1ccccc1)C(=O)N[C@@H](CCS(C)(=O)=O)C(=O)OC(C)C)NC[C@@H](N)CS | Not Active | Not Active | Not Active | Not Active | Not Active | Not Active | Not Active | Not Active |  |  |  | 
8 | CC(C)(C)NC[C@H](O)COc1cccc2c1CCCC2=O [LEVOBUNOLOL] | Not Active | Not Active | Not Active | Not Active | Not Active | Not Active | Not Active | Not Active |  |  |  | 
9 | C[N+]1(C)[C@@H]2C[C@@H](OC(=O)[C@H](CO)c3ccccc3)C[C@H]1[C@@H]1O[C@@H]12.[Br-] [METHSCOPOLAMINE BROMIDE] | Not Active | Not Active | Not Active | Not Active | Not Active | Not Active |  | Not Active |  |  |  | 
10 | CO[C@@H]1[C@@H](OC)[C@H](C)[C@@](O)(CC(=O)O)O[C@H]1[C@H](C)[C@H]1O[C@@]2(CC[C@@](C)([C@H]3CC[C@@](C)([C@@H]4O[C@@H]([C@H]5O[C@](C)(O)[C@H](C)C[C@@H]5C)C[C@@H]4O[C@@H]4C[C@H](OC)[C@@H](OC)[C@H](C)O4)O3)O2)C[C@H](O)[C@H]1C.N [MADURAMICIN] | Not Active | Not Active | Not Active | Not Active | Not Active | Not Active | Not Active | Not Active |  |  |  | 
11 | Cc1nnc(NS(=O)(=O)c2ccc(N)cc2)s1 [SULFAMETHIZOLE] | Not Active | Not Active | Not Active | Not Active | Not Active | Not Active | Not Active | Not Active |  |  |  | 
12 | Cc1cnc(NC(=O)C2=C(O)c3ccccc3S(=O)(=O)N2C)s1 [MELOXICAM] | Not Active | Not Active | Not Active | Not Active | Not Active | Not Active | Not Active | Not Active |  |  |  | 
13 | CC1=C(/C=C/C(C)=C/C=C/C(C)=C/C(=O)O)C(C)(C)CCC1 [TRETINOIN] | Not Active | Not Active | Not Active | Not Active | Not Active | Not Active | Not Active | Not Active |  |  |  | 
14 | Cc1ccc(S(=O)(=O)NC(=O)NN2CCCCCC2)cc1 [TOLAZAMIDE] | Not Active | Not Active | Not Active | Not Active | Not Active | Not Active | Not Active | Not Active |  |  |  | 
15 | Cc1cccc(C)c1NC(=O)C(C)N (centres undefined) [TOCAINIDE] | Not Active | Not Active | Not Active | Not Active | Not Active | Not Active | Not Active | Not Active |  |  |  | 
16 | Cc1cc2c(s1)Nc1ccccc1N=C2N1CCN(C)CC1 [OLANZAPINE] |  |  |  | Not Active | Not Active | Not Active |  | Not Active |  |  |  | 
17 | COC(=O)Nc1nc2ccc(C(=O)c3ccccc3)cc2[nH]1 [MEBENDAZOLE] | Not Active | Not Active | Not Active | Not Active | Not Active | Not Active | Not Active | Not Active |  |  |  | 
18 | O=C1CC[C@@]2(O)[C@H]3Cc4ccc(O)c5c4[C@@]2(CCN3CC2CC2)[C@H]1O5 [NALTREXONE] | Not Active | Not Active | Not Active | Not Active | Not Active | Not Active | Not Active | Not Active |  |  |  | 
19 | CCN(CC)CCNC(=O)c1cc(Cl)c(N)cc1OC [METOCLOPRAMIDE] | Not Active | Not Active | Not Active | Not Active | Not Active | Not Active | Not Active | Not Active |  |  |  | 
20 | CCOc1cc(N)c(Cl)cc1C(=O)NCC1CN(Cc2ccc(F)cc2)CCO1 (centres undefined) [MOSAPRIDE] | Not Active | Not Active | Not Active | Not Active | Not Active | Not Active | Not Active | Not Active |  |  |  | 
21 | Cc1ccc(Cl)c(Nc2ccccc2C(=O)O)c1Cl [MECLOFENAMIC ACID] | Not Active | Not Active | Not Active | Not Active | Not Active | Not Active | Not Active | Not Active |  |  |  | 
22 | CN1C[C@H](CNC(=O)OCc2ccccc2)C[C@@H]2c3cccc4c3c(cn4C)C[C@H]21 [METERGOLINE] |  | Not Active | Not Active | Not Active | Not Active | Not Active | Not Active | Not Active | 136 nM | 67 nM |  | 
23 | O=[As][O-].[Na+] [SODIUM ARSENITE] | Not Active | Not Active | Not Active | Not Active | Not Active | Not Active | Not Active | Not Active |  |  |  | 
24 | CN(C)CCC=C1c2ccccc2COc2ccccc21 [DOXEPIN] |  |  |  | Not Active | Not Active | Not Active |  | Not Active | 118 nM | 58 nM |  | 
25 | CNCCCC12CCC(c3ccccc31)c1ccccc12 [MAPROTILINE] |  |  |  | Not Active | Not Active | Not Active |  | Not Active | 397 nM | 195 nM | 160 nM | 115 nM
